Measured values as given in paper PMC8509676, “Residual Helicity at the Active Site of the Histidine Phosphocarrier, HPr, Modulates Binding Affinity to Its Natural Partners” (International Journal of Molecular Sciences, 2021).
Where two headings read alike, the source gives them in different places.

Columns and labels:
Rsd^ec = biological target: T1, Rsd^ec (Escherichia coli, UniProt P0AFX4); experiment: Isothermal titration calorimetry (ITC), peptide/Rsd^ec binding; details: ITC, 25 °C; for ΔH, Rsd^ec: 50 mM Tris pH 7.0
T1 construct: His-tag; made in house; host or cells: E. coli C41
Experimental: The experimental set-up and data processing of ITC experiments has been described previously. Rsd^ec or EIN^sc (at 10–20 µM) were injected into the cell, and the peptides in the syringe (100–200 µM) in 50 mM of Tris buffer, pH 7.0. The temperature for all the experiments was 25 °C. Typically, each calorimetric titration consisted of performing 19 injections with 2 μL volume, with a time spacing of 150 s, while stirring at 750 rpm in an Auto-iTC200 high-sensitivity microcalorimeter (MicroCal, Malvern-Panalytical, Malvern, UK). The results were analysed by applying a model that considered a single binding site (assuming a 1:1 stoichiometry) for the peptide/EIN^sc or peptide/Rsd^ec interaction using a nonlinear least-squares regression analysis in Origin 7.0 (OriginLab, Northampton, MA, USA) with user-defined fitting routines.

[1] = system: Staphylococcus aureus CECT59; assay type: cell-based
Experimental: The CECT59 strain of the Gram-positive bacteria Staphylococcus aureus from the Spanish Type Culture Collection (Colección Española de Cultivos Tipo, CECT, Universitat de Valencia, Spain) was used for determining its sensitivity to the HPr peptides studied in this work. The MIC for each peptide was determined by the two-fold broth microdilution method according to the Clinical and Laboratory Standards Institute (CLSI) guidelines, with some modifications as previously described. For this testing procedure, a bacteria colony previously grown in MH agar plates was isolated and incubated in MH broth at 37 °C overnight to prepare the bacteria inoculum to be used in each assay. Then, the bacteria suspensions were adjusted to a 100× dilution of an 0.5 McFarland turbidity standard in MH broth and incubated with different concentrations of each peptide in round-bottom 96-well polystyrene plates (Deltalab S.L., Rubí, Spain) (50 μL/well) for 24 h at 37 °C. The peptide concentrations employed comprised two-fold dilutions starting at either 120, 160, or 400 µM, depending on the experiment. […] All assays were performed in triplicate.

[2] = Far-UV CD, helicity from molar ellipticity at 222 nm; assay type: physicochemical; details: 5 °C; for [Θ]^222 (value in parentheses): 50 mM Tris pH 7.0; for Helicity (%): 50 mM Tris pH 7.0, from [Θ]^222 assuming −39,500 deg cm^2 dmol^−1 for a fully formed α-helix
Experimental: Spectra were collected on a Jasco J810 spectropolarimeter (Jasco, Tokyo, Japan) interfaced with a Peltier unit. Far-UV measurements were performed with samples placed in quartz cells with a 0.1 cm path length (Hellma, Kruibeke, Belgium), with a response time of 2 s, a band width of 1 nm, and a scan velocity of 50 nm/min. For all peptides, a wide range of concentrations (10–50 µM) was used to determine whether either the shape or the intensity of the spectra was concentration-dependent. None of those features changed in the concentration range explored. The experiments in aqueous solution were acquired at 5 °C in Tris buffer (50 mM, pH 7.0). Raw ellipticity was converted to molar ellipticity, [Θ], from which the fraction of helical populations was determined as previously described. For the experiments in the presence of each protein (repeated three times), the same concentration used in the fluorescence experiments was used, and the experimental set-up was the same as described above for the isolated peptides.

[3] = TFE titration followed by far-UV CD (disordered-helical two-state equilibrium); assay type: physicochemical; details: for [TFE]1/2 / m: TFE titration by far-UV CD, 20 µM peptide, two-state fit, fitting errors; for percentage of helical population (in parentheses): from ∆G^water assuming a two-state conformational equilibrium; for ∆G^water: product of m- and [TFE]1/2 values, error propagation
Experimental: For experiments in the presence of TFE, the same set of experimental parameters was used. Cosolvent concentrations were indicated in percentage of volume (%). […] The peptide concentration for these experiments was 20 µM.

[4] = Translational diffusion NMR (DOSY); assay type: physicochemical; details: for D (translational diffusion coefficient): DOSY, 10 °C, 100% D2O, 70-120 µM peptide, fitting errors, repeated twice; for Rh (in parentheses, from DOSY): from comparison with the Rh of dioxane (2.12 Å)
Experimental: (b) Translational diffusion NMR (DOSY): Peptide concentrations were the same as those used in the 1D-^1H-NMR spectra. Translational self-diffusion measurements were performed with the pulsed-gradient spin-echo sequence in the presence of 100% D2O. The following relationship existed between the translational self-diffusion coefficient, D, and the delays used during experiment acquisition:(2) I/I0=−exp(DγH2δ^2G^2(Δ−δ/3−τ/2)) where I is the peak intensity of a particular resonance (or a group of them) at any gradient strength; I0 is the maximum peak intensity of the same resonance(s) at the smallest gradient strength (that is, at 2% of the total power of the gradient coil); D is the translational self-diffusion constant (in cm^2 s^−1); δ is the duration (in s) of the gradient; G is the gradient strength (in T cm^−1); ∆ is the time (in s) between the gradients; γH is the gyromagnetic constant of the proton (in rad s^−1 T^−1); and τ is the recovery delay between the bipolar gradients (100 µs in our experiments). The gradient strength (G) was varied in 16 lineal steps, between 2 and 95% of the total power of the gradient coil of the probe. The gradient strength was calibrated by using the value of D for the residual proton water line in a sample containing 100% D2O placed in a 5 mm tube [42]. Data were plotted as I/I0 versus G^2, and the exponential factor of the curve was:(3) DγH2δ^2(Δ−δ/3−τ/2) from which D can be obtained. The duration of the gradient (δ) was 2.25 ms, and the time between the two gradients (∆) was set to 200 ms. The signal from the methyl groups between 1.1 and 0.70 ppm were used for integration of the intensity. A final concentration of 1% of dioxane was added to each peptide; the hydrodynamic radius, Rh, of each peptide was obtained for comparison by assuming that the Rh of dioxane was 2.12 Å [42]. The DOSY experiment was repeated twice with fresh samples for each peptide.

[5] = biological target: T2, N-terminal domain of EI from Streptomyces coelicolor (EIN^sc) (Streptomyces coelicolor); experiment: ITC; Rsd^ec or EIN^sc (10–20 µM) in the cell, peptide (100–200 µM) in the syringe; 50 mM Tris, pH 7.0, 25 °C; single binding-site model, 1:1 stoichiometry assumed; details: both partners purified
T2 chain: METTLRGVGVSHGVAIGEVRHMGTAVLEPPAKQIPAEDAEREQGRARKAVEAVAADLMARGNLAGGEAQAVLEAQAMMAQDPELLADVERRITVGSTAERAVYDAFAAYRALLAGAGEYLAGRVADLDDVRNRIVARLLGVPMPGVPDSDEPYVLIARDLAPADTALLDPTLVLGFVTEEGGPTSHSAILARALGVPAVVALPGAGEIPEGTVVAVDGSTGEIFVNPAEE

[6] = biological target: T3, Regulator of sigma D from Escherichia coli (Rsd^ec) (E. coli, UniProt P0AFX4 1-158); experiment: as above; details: both partners purified
T3 construct: Rsd (regulator of sigma D), anti-sigma factor of sigma 70, E. coli; 158-residue-long protein; called 'intact Rsd' in the abstract and 'wild-type Rsd vector' in the methods; Vector was a gift from Ann Hochschild; source: E. coli C41, purified as described [24,50]
T3 sequence (looked up): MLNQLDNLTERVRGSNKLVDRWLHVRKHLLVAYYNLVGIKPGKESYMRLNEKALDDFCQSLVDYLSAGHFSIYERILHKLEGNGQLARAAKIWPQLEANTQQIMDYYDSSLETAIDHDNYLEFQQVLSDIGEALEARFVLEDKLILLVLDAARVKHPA

[7] = biological target: T2, N-terminal domain of EI from …; experiment: other fluorescence titration; peptide 0–30 µM added to 3 µM Rsd^ec or EIN^sc; 50 mM Tris, pH 7.0, 25 °C; samples left overnight at 5 °C; blank of peptide subtracted; details: both partners purified
[8] = S. aureus CECT59, two-fold broth microdilution (CLSI), MH broth, 24 h, 37 °C, triplicate (sd = 0), highest concentration tested 400 µM

Ac-GWAEGLHARAASAFARAATATG-NH2 [P18A/I21A/V23A]
ΔH, Rsd^ec (Rsd^ec): 2.5 ± 1.7 kJ/mol
Kd (Rsd^ec; 50 mM Tris pH 7.0, single binding-site model, read-out: Kd, Rsd^ec (ITC)): 2.6 ± 0.4 µM
MIC ([1]; CECT59, 24 h): 60 µM
[Θ]^222 (value in parentheses) [2]: −2698.61 deg cm^2 dmol^−1
Helicity (%) [2]: 6.8%
[TFE]1/2 [3]: 19.0 ± 0.9 % (v/v)
m [3]: 184 ± 32 cal/mol (% (v/v))
percentage of helical population (in parentheses) [3]: 0.17%
∆G^water [3]: 14.6 ± 2.5 kJ/mol
D (translational diffusion coefficient) [4]: 2.5 ± 0.4 cm^2 s^−1 × 10^6
Rh (in parentheses, from DOSY) [4]: 9 ± 2 Å

Ac-GWAEGLHARAASIFVRAATATG-NH2 [Peptide P18A]
ΔH, Rsd^ec (Rsd^ec): 4.6 ± 1.7 kJ/mol
MIC [1, 8]: 120 µM
[Θ]^222 (value in parentheses) [2]: −1135.47 deg cm^2 dmol^−1
Helicity (%) [2]: 2.9%
[TFE]1/2 [3]: 19.8 ± 0.4 % (v/v)
m [3]: 181 ± 17 cal/mol (% (v/v))
percentage of helical population (in parentheses) [3]: 0.15%
∆G^water [3]: 15.1 ± 1.3 kJ/mol
D (translational diffusion coefficient) [4]: 2.0 ± 0.1 cm^2 s^−1 × 10^6
Rh (in parentheses, from DOSY) [4]: 11 ± 1 Å

Ac-GWAEGLHARPASIAVRAATATG-NH2 [Peptide F22A]
ΔH, Rsd^ec (Rsd^ec): 4.6 ± 2.1 kJ/mol
MIC [1, 8]: 400 µM
[Θ]^222 (value in parentheses) [2]: −84.95 deg cm^2 dmol^−1
Helicity (%) [2]: 0.2%
[TFE]1/2 [3]: 22 ± 1 % (v/v)
m [3]: 134 ± 27 cal/mol (% (v/v))
percentage of helical population (in parentheses) [3]: 0.5%
∆G^water [3]: 12.1 ± 2.5 kJ/mol
D (translational diffusion coefficient) [4]: 1.83 ± 0.03 cm^2 s^−1 × 10^6
Rh (in parentheses, from DOSY) [4]: 11 ± 1 Å

B1: HPr^9–30 wild-type peptide (residues 9-30 of HPr from Streptomyces coelicolor) (peptide)
peptide: Ac-GWAEGLHARPASIFVRAATATG-NH2
notes: HPr (histidine phosphocarrier) of Streptomyces coelicolor, HPr^sc, residues 9-30; first letter printed as G^9; The limit residues are printed as Gly9-Ala30 (abstract) and Ala9-Gly30 (introduction); source: synthetic peptide, bought: NZYTech (purity >95%)
Kd [5]: 2.3 ± 0.4 µM
dH [5]: -3.35 ± 1.67 kJ/mol
Kd [6]: 1.4 ± 0.3 µM
dH [6]: 5.44 ± 1.67 kJ/mol
Kd [7]: 10 µM

B2: HPr^9–30 P18A/I21A/F22A/V23A peptide (peptide)
peptide: Ac-GWAEGLHARAASAAARAATATG-NH2
notes: HPr of Streptomyces coelicolor, residues 9-30, with P18A, I21A, F22A and V23A; also called quadruple-mutant; source: synthetic peptide, bought: NZYTech (purity >95%)
Kd [5]: 1.1 ± 0.2 µM
dH [5]: 0.837 ± 1.67 kJ/mol
dH [6]: 18 ± 2.09 kJ/mol
Kd [7]: 11 µM

B3: HPr^9–30 V23A peptide (peptide)
peptide: Ac-GWAEGLHARPASIFARAATATG-NH2
notes: HPr of Streptomyces coelicolor, residues 9-30, with V23A; source: synthetic peptide, bought: NZYTech (purity >95%)
Kd [5]: 9.1 ± 0.9 µM
dH [5]: -27.6 ± 2.09 kJ/mol
Kd [6]: 8.3 ± 0.9 µM
dH [6]: -3.35 ± 2.09 kJ/mol
Kd [7]: 9 µM
